Earlier results as cited in patent US5932245A, “Gelatin or collagen hydrolysate containing drug formulation that provides for immediate release of nanoparticle drug compounds” (priority 1991, dated 1999).
Converted amounts (≈) assume the structure as drawn. Where two headings read alike, the source gives them in different places.

How the values were obtained:
[1] = in contrast to indometacin
[2] = in vivo
[3] = aqueous medium

COc1ccc2c(c1)c(CC(=O)OCC(=O)O)c(C)n2C(=O)c1ccc(Cl)cc1 [acemetacin, carboxymethyl(1-(4-chlorobenzoyl)-5-methoxy-2-methyl-3-indolyl)acetate]
ulcerogenic properties [1]: weakly pronounced ulcerogenic properties
metabolism [2]: for the most part metabolized to indometacin

COc1ccc(Cl)cc1C(=O)NCCc1ccc(S(=O)(=O)NC(=O)NC2CCCCC2)cc1 [glibenclamide, 1-{4-[2-(5-chloro-2-methoxybenzamido)ethyl]phenylsulfonyl}-3-cyclohexylurea]
solubility ([3]; pH 1.3, room temperature): 1 µg/mL (≈ 2.02 µM)
solubility ([3]; pH 6.0, room temperature): 3 µg/mL (≈ 6.07 µM)
solubility ([3]; pH 7.8, room temperature): about 30 mg/l

COc1ccc2c(c1)c(CC(=O)O)c(C)n2C(=O)c1ccc(Cl)cc1 [indometacin, (1-(4-chlorobenzoyl)-5-methoxy-2-methyl-3-indolyl)acetic acid]
water solubility (in words): virtually water-insoluble
